Measurements published in patent US20260103465A1, “GLYCOGEN SYNTHASE KINASE 3 INHIBITORS AND USES THEREOF” (The Broad Institute, Inc., priority 2023, published 2026).
Where two headings read alike, the source gives them in different places.

Key:
[1] = test system: MDR1-MDCK cell monolayers; experiment: MDR1/MDCK permeability assay; assay type: in vitro ADME; conditions: for MDCK Permeability (MDR1-MDCK); Mean; Papp(A-B) (10^−6 cm/s): A to B; for MDCK Permeability (MDR1-MDCK); Mean; Papp(B-A) (10^−6 cm/s): B to A
Source text: The MDR1/MDCK assay is run at WuXi and Absorption Systems. This assay is used to determine the blood-brain barrier (BBB) penetration potential of a test compound using MDR1-MDCK cell monolayers. Catalog number EA203.
• The percent recovery of the test compound from the Transwell® wells containing MDR1-MDCK cell monolayers • The apparent permeability (Papp) in both directions • The efflux ratio (Papp B to A)/(Papp A to B) • The blood-brain barrier penetration potential classification: • High when • Papp A to B≥3.0×10^−6 cm/s, and efflux<3.0 • Moderate when • Papp A to B≥3.0×10^−6 cm/s, and 10>efflux≥3.0 • Low when either • Papp A to B≥3.0×10^−6 cm/s, and […], or when • Papp A to B<[…].
• Test compound at 5 μM in HBSSg with maximum DMSO concentration not greater than 1%.
• Confluent monolayers of MDR1-MDCK cells, 7 to 11 days old.
• Receiver well with 1% BSA in modified Hanks buffer (HBSSg) • Apical and basolateral side at pH 7.4 • Dose two monolayers in each direction (N=2) • Dose apical side for (A to B) assessment • Dose basolateral side for (B to A) assessment • Sample both apical and basolateral sides at 120 minutes • Determine the concentrations of test compound using a generic LC-MS/MS method with a minimum 4 point calibration curve.
• The quality of the cell monolayer batch is verified using control compounds before monolayers are released for use • The quality of each monolayer used in the assay is verified by a TEER measurement and by calculating the Papp for a control compound.

[2] = Human liver microsomal stability; assay type: in vitro ADME; conditions: human liver microsomes; Table 4
Method: Stability of compound (5 μL of a 10 mM DMSO solution) in human liver microsomes was tested in duplicate by incubating compound at 1 μM for 60 minutes at 37° C. Compound level at 60 minutes was compared to level at 0 minutes, and percent remaining was calculated. Order by selecting Microsomal Stability in Prometheus, checking boxes for desired species. Assay Controls: microsomes with NADPH without compound-matrix interference. Microsomes plus compound without NADPH—non-enzymatic instability.

[3] = target: T1, GSK3b (GST-full length GSK3b) (Homo sapiens, UniProt P49841); experiment: GSK3b TR-FRET kinase inhibition assay; assay type: biochemical
T1 construct: GST-full length GSK3b: [SignalChem G08-9G]; purchased SignalChem G08-9G
Outline: (§1)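 IC50 derived from normalized 665/615 TR-FRET signal (Tb anti-pSer641 antibody, streptavidin-d2), read after EDTA stop. Reaction: 1 nM GST-full-length enzyme, 30 min compound pre-incubation, 100 min at ambient temperature in Tris pH 7.5 with 1% DMSO, 200 nM biotinylated primed glycogen synthase peptide, ATP 2 μM to 1 mM.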

[4] = target: T2, GSK3a (GST-full length GSK3a) (Homo sapiens, UniProt P49840); experiment: GSK3a TR-FRET kinase inhibition assay; assay type: biochemical
T2 construct: GST-full length GSK3a [SignalChem G08-10G]; purchased SignalChem G08-10G
Outline: as §1

[5] = 1 mM ATP, Table 3, read-out: GSK3b TR-FRET 1 mM ATP Average IC50
[6] = 1 mM ATP, Table 3, read-out: GSK3a TR-FRET 1 mM ATP Average IC50
[7] = 1 mM ATP, Table 5, read-out: GSK3β TR-FRET 1 mM ATP Average IC50
[8] = 1 mM ATP, Table 5, read-out: GSK3α TR-FRET 1 mM ATP Average IC50
[9] = 2 μM ATP, read-out: GSK3β TR-FRET 2 μM ATP GMean IC50
[10] = 4 μM ATP, read-out: GSK3α TR-FRET 4 μM ATP GMean IC50

T2 sequence (P49840 whole entry): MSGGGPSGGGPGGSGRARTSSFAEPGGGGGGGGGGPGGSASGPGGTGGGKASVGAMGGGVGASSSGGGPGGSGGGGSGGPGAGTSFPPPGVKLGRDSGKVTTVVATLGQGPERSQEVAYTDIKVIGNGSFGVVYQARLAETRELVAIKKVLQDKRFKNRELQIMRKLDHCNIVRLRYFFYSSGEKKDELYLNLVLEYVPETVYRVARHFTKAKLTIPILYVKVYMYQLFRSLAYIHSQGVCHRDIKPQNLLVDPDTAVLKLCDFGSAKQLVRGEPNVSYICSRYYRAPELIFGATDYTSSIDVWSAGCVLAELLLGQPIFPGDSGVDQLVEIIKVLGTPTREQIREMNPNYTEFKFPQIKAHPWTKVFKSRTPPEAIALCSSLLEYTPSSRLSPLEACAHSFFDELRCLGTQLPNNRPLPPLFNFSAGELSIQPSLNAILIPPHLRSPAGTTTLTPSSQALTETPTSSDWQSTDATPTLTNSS
T1 sequence (P49841 whole entry): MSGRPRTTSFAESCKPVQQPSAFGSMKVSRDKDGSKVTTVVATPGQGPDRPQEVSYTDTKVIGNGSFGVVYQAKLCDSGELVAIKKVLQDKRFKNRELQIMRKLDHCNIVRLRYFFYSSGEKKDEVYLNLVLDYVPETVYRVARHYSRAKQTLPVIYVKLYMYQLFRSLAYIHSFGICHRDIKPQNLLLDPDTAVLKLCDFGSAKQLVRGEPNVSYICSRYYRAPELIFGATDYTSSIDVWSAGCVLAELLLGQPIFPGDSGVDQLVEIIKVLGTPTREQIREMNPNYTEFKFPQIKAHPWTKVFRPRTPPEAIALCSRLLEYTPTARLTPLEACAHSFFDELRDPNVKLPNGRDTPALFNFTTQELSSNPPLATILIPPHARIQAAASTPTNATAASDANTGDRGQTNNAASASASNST

Compound	IC50 [3, 5]	IC50 [4, 6]	IC50 [3, 7]	IC50 [4, 8]	also measured
CCC1(c2ccccc2)C2=C(CC(C)(C)CC2=O)Nc2ncc(F)cc21 (single isomer, unassigned) [Compound 114B]	–	–	–	–	MDCK Permeability (MDR1-MDCK); Mean; Papp(A-B) (10^−6 cm/s) ([1]; Table 4): 12 10^−6 cm/s; MDCK Permeability (MDR1-MDCK); Mean; Papp(B-A) (10^−6 cm/s) ([1]; Table 4): 24 10^−6 cm/s; MDCK Permeability (MDR1-MDCK); Mean; P. Ratio(B-A/A-B) Efflux Ratio ([1]; Papp B-A/A-B, Table 4): 2.1; Microsome Stability (Human) (DMPK_BIIB); Mean; in vitro t1/2 [2]: 1.7 min
CC1(C)CC(=O)C2=C(C1)Nc1ncc(F)cc1C2(C)c1cccc(S(C)(=O)=O)c1 (single isomer, unassigned) [Compound 139A]	≤ 0.1 µM	≤ 0.1 µM	–	–	MDCK Permeability (MDR1-MDCK); Mean; Papp(A-B) (10^−6 cm/s) ([1]; Table 3): 0.52 10^−6 cm/s; MDCK Permeability (MDR1-MDCK); Mean; Papp(B-A) (10^−6 cm/s) ([1]; Table 3): 75 10^−6 cm/s; MIDCK Permeability (MDR1-MDCK); Mean; P. Ratio(B-A/A-B) Efflux Ratio ([1]; Papp B-A/A-B, Table 3): 144
CC1(C)CC(=O)C2=C(C1)Nc1nccc(C#N)c1C2(C)c1ccccc1 (single isomer, unassigned) [Compound 108A]	0.1 to 1 µM	0.1 to 1 µM	–	–	MDCK Permeability (MDR1-MDCK); Mean; Papp(A-B) (10^−6 cm/s) ([1]; Table 3): 18 10^−6 cm/s; MDCK Permeability (MDR1-MDCK); Mean; Papp(B-A) (10^−6 cm/s) ([1]; Table 3): 56 10^−6 cm/s; MIDCK Permeability (MDR1-MDCK); Mean; P. Ratio(B-A/A-B) Efflux Ratio ([1]; Papp B-A/A-B, Table 3): 3.2
CC1(C)CC(=O)C2=C(C1)Nc1ncc(F)c(C#N)c1C2(C)c1ccccc1 (single isomer, unassigned) [Compound 121A]	≤ 0.1 µM	≤ 0.1 µM	–	–	MDCK Permeability (MDR1-MDCK); Mean; Papp(A-B) (10^−6 cm/s) ([1]; Table 3): 22 10^−6 cm/s; MDCK Permeability (MDR1-MDCK); Mean; Papp(B-A) (10^−6 cm/s) ([1]; Table 3): 63 10^−6 cm/s; MIDCK Permeability (MDR1-MDCK); Mean; P. Ratio(B-A/A-B) Efflux Ratio ([1]; Papp B-A/A-B, Table 3): 2.9
CC1(C)CC(=O)C2=C(C1)Nc1ncc(C(F)(F)F)cc1C2(C)c1cccc(C(F)F)c1 (single isomer, unassigned) [646A]	–	–	5 to 20 µM	5 to 20 µM	–
CC1(C)CC(=O)C2=C(C1)Nc1ncc(C#N)cc1C2(C)c1ccccc1 (single isomer, unassigned) [Compound 109A]	1 to 5 µM	1 to 5 µM	–	–	–
CN1C(=O)C2=C(CC1(C)C)Nc1ncc(C(F)F)c(C#N)c1C2(C)c1ccccc1 (single isomer, unassigned) [632A]	–	–	0.1 to 1 µM	1 to 5 µM	–
C=C(C)c1cnc2c(c1C#N)C(C)(c1ccccc1)C1=C(CC(C)(C)CC1=O)N2 (single isomer, unassigned) [620A]	–	–	5 to 20 µM	5 to 20 µM	–
CCc1cnc2c(c1)C(C)(c1ccccc1)C1=C(CC(C)(C)CC1=O)N2 (single isomer, unassigned) [Compound 113A]	1 to 5 µM	–	–	–	IC50 ([3]; 100 μM ATP, read-out: GSK3b 100 μM ATP Average IC50): 0.1 to 1 µM; IC50 ([4]; 100 μM ATP, read-out: GSK3a 100 μM ATP Average IC50): 1 to 5 µM
CC1(C)CC(=O)C2=C(C1)Nc1ncc(C(F)F)c(C#N)c1C2(C)c1ccccc1 (single isomer, unassigned) [627A]	–	–	0.1 to 1 µM	0.1 to 1 µM	–
CCC1(c2ccccc2)C2=C(CC(C)(C)CC2=O)Nc2ncc(C(F)(F)F)cc21 (single isomer, unassigned) [133 B]	–	–	–	–	IC50 [3, 9]: ≤ 0.1 µM; IC50 [4, 10]: ≤ 0.1 µM
CC1(C)CC(=O)C2=C(Nc3ncc(F)c(C#N)c3[C@]2(C)c2ccccc2)[C@H]1F (single isomer, unassigned) [Compound 617A]	–	–	5 to 20 µM	5 to 20 µM	–
CC1(C)CC(=O)C2=C(C1)Nc1ncc(F)cc1C2(C)c1cccc(S(C)(=O)=O)c1 (single isomer, unassigned) [Compound 139B]	5 to 20 µM	5 to 20 µM	–	–	–
CC1(C)CC(=O)C2=C(C1)Nc1ncc3c(c1C2(C)c1ccccc1)CCC3 (single isomer, unassigned) [Compound 118B]	1 to 5 µM	1 to 5 µM	–	–	–
CC1(C)CC(=O)C2=C(C1)Nc1ncc(F)c(C#N)c1C2(C)c1cccc(C(F)F)c1 (single isomer, unassigned) [634A]	–	–	5 to 20 µM	5 to 20 µM	–
Cc1cnc2c(c1C)C(C)(c1ccccc1)C1=C(CC(C)(C)CC1=O)N2 (single isomer, unassigned) [601B]	–	–	5 to 20 µM	5 to 20 µM	–
CC1(C)CC(=O)C2=C(C1)Nc1ncc(F)c(C(F)(F)F)c1C2(C)c1ccccc1 (single isomer, unassigned) [Compound 135A]	0.1 to 1 µM	0.1 to 1 µM	–	–	–
COc1cncc(F)c1-c1cccc(C2(C)C3=C(CC(C)(C)CC3=O)Nc3ncc(F)cc32)c1 (single isomer, unassigned) [Compound 156A]	0.1 to 1 µM	≤ 0.1 µM	–	–	–

Compound	IC50 [3, 5]	IC50 [4, 6]	IC50 [3, 7]	IC50 [4, 8]	also measured
CC(C)Oc1cccc(C2(C)C3=C(CC(C)(C)CC3=O)Nc3ncc(F)c(C#N)c32)c1 (single isomer, unassigned) [639B]	–	–	≤ 0.1 µM	≤ 0.1 µM	–
Cc1c(C2(C)C3=C(CC(C)(C)CC3=O)Nc3ncc(F)cc32)cccc1S(C)(=O)=O (single isomer, unassigned) [643A]	–	–	0.1 to 1 µM	0.1 to 1 µM	–
CC1(C)CC(=O)C2=C(C1)Nc1ncccc1C2(C)c1cccc(N(CC2CC2)c2ncccn2)c1 (single isomer, unassigned) [652B]	–	–	5 to 20 µM	≤ 0.1 µM	–
CC1(C)CC(=O)C2=C(C1)Nc1ncc(C(F)(F)F)cc1C2(C)c1cccc(S(C)(=O)=O)c1 (single isomer, unassigned) [Compound 157B]	5 to 20 µM	5 to 20 µM	–	–	–
Cc1c(F)cnc2c1C(C)(c1cccc(S(C)(=O)=O)c1)C1=C(CC(C)(C)CC1=O)N2 (single isomer, unassigned) [Compound 144A]	0.1 to 1 µM	0.1 to 1 µM	–	–	–
CCC1(c2cccc(-c3ccnc(C)c3C)c2)C2=C(CC(C)(C)CC2=O)Nc2ncc(F)cc21 (single isomer, unassigned) [Compound 1035A]	–	–	–	–	IC50 [3, 9]: 1 to 5 µM; IC50 [4, 10]: 1 to 5 µM
CCC1(c2cccc(-c3ccnc(C)c3)c2)C2=C(CC(C)(C)CC2=O)Nc2ncccc21 (single isomer, unassigned) [Compound 1021B]	–	–	–	–	IC50 [3, 9]: 0.1 to 1 µM; IC50 [4, 10]: 0.1 to 1 µM
CN1C(=O)C2=C(CC1(C)C)Nc1ncc(F)c(C#N)c1C2(C)c1ccccc1 (single isomer, unassigned) [615A]	–	–	1 to 5 µM	1 to 5 µM	–
CC1(C)CC(=O)C2=C(Nc3ncc(F)c(C#N)c3[C@@]2(C)c2ccccc2)[C@@H]1F (single isomer, unassigned) [Compound 617B]	–	–	0.1 to 1 µM	0.1 to 1 µM	–
CC1(C)CC(=O)C2=C(C1)Nc1nccc(CC(F)(F)F)c1C2(C)c1ccccc1 (single isomer, unassigned) [Compound 132B]	1 to 5 µM	5 to 20 µM	–	–	–
CCC1(c2cccc(-c3ccnc4c3CCC4)c2)C2=C(CC(C)(C)CC2=O)Nc2ncccc21 (single isomer, unassigned) [Compound 1034A]	–	–	–	–	IC50 [3, 9]: > 5 µM; IC50 [4, 10]: > 5 µM
CC1(C)CC(=O)C2=C(C1)Nc1ncc(C(F)(F)F)c(C3CC3)c1C2(C)c1ccccc1 (single isomer, unassigned) [642A]	–	–	1 to 5 µM	5 to 20 µM	–
CC1(C)CC2=C(C(=O)[C@H]1F)[C@@](C)(c1ccccc1)c1c(ncc(F)c1C#N)N2 (single isomer, unassigned) [Compound 616C]	–	–	5 to 20 µM	5 to 20 µM	–
CC1(C)CC(=O)C2=C(C1)Nc1ncc(I)c(Br)c1C2(C)c1ccccc1 (single isomer, unassigned) [657B]	–	–	1 to 5 µM	5 to 20 µM	–
COc1cncc(F)c1-c1cccc(C2(C)C3=C(CC(C)(C)CC3=O)Nc3ncc(C)cc32)c1 (single isomer, unassigned) [Compound 155A]	1 to 5 µM	0.1 to 1 µM	–	–	–
Cc1cnc2c(c1C#N)C(C)(c1ccccc1)C1=C(CC(C)(C)CC1=O)N2 (single isomer, unassigned) [603A]	–	–	5 to 20 µM	5 to 20 µM	–
CC1(C)CC(=O)C2=C(C1)Nc1ncc(F)cc1C2(C)c1cccc(-c2ccncc2CC(F)(F)F)c1 (single isomer, unassigned) [653B]	–	–	≤ 0.1 µM	≤ 0.1 µM	–
